Assay results as given in US20130296230A1, “METHOD FOR TREATING MALARIA, METHOD FOR KILLING MALARIA PARASITE, AND USE OF THE METHODS” (RIKEN, priority 2010, published 2013).
Read-outs that look alike come from different tables or passages of the source.

Key:
[1] = tested on: falciparum malaria parasites; conditions: cultured 30 hours in presence of 2-APB
Experimental: ER-Tracker Red (Invitrogen). […] ER-Tracker Red was then added to the erythrocyte suspension so as to be 0.5 μM in final concentration, and the mixture was shaken at 200 rpm for 30 minutes at 37° C.

[2] = tested on: falciparum malaria parasites
Experimental: Specimens to be subjected to the electron microscopy were fixed for approximately 2 hours in 2.5% (V/V) glutaraldehyde buffered with 0.1 M phosphate buffer (pH 7.4, at 4° C.). The specimens were then post-fixed in 1% (w/V) osmium tetroxide for 1 hour.

[3] = tested on: falciparum malaria parasite FCR-3 strain
Text: (§1) Giemsa-stained smears were observed by Nikon Eclipse 80i microscope (Nikon), photographed by Nikon DXM 1200F camera (Nikon) and uploaded on a personal computer by digital photograph manager software (ACT-1; Nikon). In order to measure falciparum malaria parasite size, 50 falciparum malaria parasites were randomly selected, and areas containing these falciparum malaria parasites were manually delineated with lines on a screen. Area, perimeter, and maximum diameter of the falciparum malaria parasites cells was calculated by WinROOF software package Ver.5.8.1 (Mitani, Japan).
In order to quantitatively examine the effect of 2-APB on intraerythrocytic falciparum malaria parasite development, the area, perimeter and maximum diameter (hereinafter referred to collectively as “three parameters”) of falciparum malaria parasite cells were analyzed at 15 hours, 30 hours, and 40 hours from the start of the synchronized culturing. At 40 hours from the start of the synchronized culturing, only schizonts were analyzed.
In order to investigate an effect of 2-APB in the ring form stage, 100 μM 2-APB was added to falciparum malaria parasites that were being synchronized-cultured, and sizes of the falciparum malaria parasites were measured after 10 hours of culturing and after 20 hours of culturing. In some assays (“removed at 10 h” in (f) of FIG. 6), 100 μM 2-APB was added at start of the culturing and removed after 10 hours of culturing, and then sizes of falciparum malaria parasites were measured after 20 hours of culturing (see (f) of FIG. 6). […] Fifty falciparum malaria parasites were measured in each experimental group. P values compared with the controls (in the presence of DMSO) are given in each panel (two-tailed unpaired t test with Welch's correction).

[4] = tested on: malaria parasites; conditions: cited from earlier work
[5] = tested on: chloroquine-resistant strain K1 of falciparum malaria parasites (P. falciparum)
Experimental: (§2) An effect of 2-APB on intraerythrocytic development of a chloroquine-resistant strain K1 of falciparum malaria parasites (P. falciparum) was examined by synchronized culturing malaria parasites in ring forms with initial parasitaemia of approximately 2%. The culturing was terminated at 24 hours, 48 hours, and 72 hours from the start of the synchronized culturing, and thin smears of erythrocytes were prepared for falciparum malaria parasite counting. Culture medium with 100 μM DMSO or 100 μM 2-APB was replaced at 24 hours and 48 hours from the start of the synchronized culturing. […] Parasitaemia of ring forms (Rf), trophozoites (T), early schizonts (ES) and late schizonts (LS) is shown as mean±S.D. of 3 wells. Stages with parasitaemia of less than 0.1% are not shown.

[6] = tested on: falciparum malaria parasites (P. falciparum); experiment: Intracellular fluorescence Ca2+ imaging of P. falciparum in intraerythrocytic stage; type: cell-based
Experimental: Next, 1 ml of the culture of the erythrocytes that had been thus diluted was collected by centrifugation (at 1,000 g for five minutes at room temperature), then resuspended in 350 μL BSA(−) culture medium constituted by the same constituents as the BSA(−) culture medium mentioned above (hereinafter referred to as “erythrocyte resuspension (1)”).
Erythrocytes were then washed once with 10 mL BSA(−) culture medium (1000 g for 5 minutes at room temperature) and resuspended in 600 μL BSA(+) culture medium (the BSA(−) culture medium supplemented with 0.5 weight % Albumax 1 and 25 μg/mL gentamicin (Sigma)) (hereinafter referred to as “erythrocyte resuspension (2)”). Next, 100 μL of the erythrocyte resuspension (2) was inoculated in a 35 mm glass-bottomed dish (MatTek Corp.) coated with 0.1 mg/ml poly-L-lysine. After 30 minutes of incubation in an O2/CO2 incubator, suspended erythrocytes were gently washed with BSA(+) culture medium before collecting.
The glass-bottomed dish was then placed in a culture chamber in which an O2 level, a CO2 level, temperature, and humidity were maintained under conditions (O2 level: 5%, CO2 level, 5%, temperature: 37° C.) used for conventional in vitro culturing of malaria parasites.
The acquisition of the transparent images and acquisition of light emissions were carried out by the true spectral detection method developed by Leica Microsystems. The imaging was carried out at intervals of every 5 to 15 seconds for duration of 300 to 600 seconds. A fluorescence intensity of fluo4-AM was calculated by subtraction of background fluorescence (F) and normalized to minimum fluorescence during the imaging period (Fmin).

[7] = tested on: chloroquine-resistant strain K1 of falciparum malaria parasites; conditions: 100 μM 2-APB; 24 hours
Text: as §1, §2

[8] = tested on: falciparum malaria parasite FCR-3 strain; experiment: Assay for examining inhibition of development of P. falciparum (synchronized culture, Giemsa smear parasitaemia count); type: cell-based
Experimental: An FCR-3 strain of falciparum malaria parasite (P. falciparum) (reference document: Hatabu T, Takada T, Taguchi N, Suzuki M, Sato K, Kano S. (2005) Antimicrob Agents Chemother. 2005 February; 49(2):493-6.) was cultured in RPMI culture medium (Invitrogen/GIBCO) in accordance with the method of Trager and Jensen (reference document: Trager, W. 86 Jensen, J. B. (1976) Science 193, 673-675.). The FCR-3 strain is a strain which takes an approximately 40 hours to undergo one development/proliferation cycle of invasion of merozoites into erythrocytes, formation of ring forms, formation of trophozoites, formation of schizonts, release of mature merozoites, and invasion of the mature merozoites into erythrocytes. To the RPMI culture medium, 0.5 weight % AlubumaxI (Invitrogen), 25 mM HEPES, 24 mM sodium hydrogen carbonate, 0.5 g/L L-glutamine, 50 mg/L hypoxanthine, 25 μg/ml gentamicin (Sigma), and human erythrocytes with 5% hematocrit (provided by a healthy volunteer) were added. Further, synchronized culturing was carried out with the use of 5 weight % d-sorbitol (reference document: Lambros, C. 86 Vanderberg, J. P. (1979) J. Parasitol. 65, 418-420.) to synchronize developments of P. falciparum.
Effects of 2-APB (2-aminoethyl diphenylborinate) and LZ (luzindole) on intraerythrocytic falciparum malaria parasite development were examined with the use of a culture of falciparum malaria parasites in a ring form stage with initial parasitaemia of approximately 1%.
First, 500 μl of the culture was injected into each well of a tissue culture plate (24-well flat-bottom plate, Corning). 2-APB and LZ were dissolved in dimethyl sulfoxide (DMSO, HYBRI-MAX (Registered Trademark), Sigma) to be 10 mM and 100 mM in concentration, respectively. In this way, stock solutions of these compounds were prepared. The stock solutions were diluted with the RPMI culture medium, and were added to each well of the tissue culture plate in an amount to be a predetermined final concentration in the well. Further, DMSO was diluted with the PPMI culture medium and was added to each well of a tissue culture plate in an amount to be a predetermined final concentration in the well, and was used as a control. Culturing was carried out in each well for a predetermined period of time.
After elapse of the predetermined period of time, a drop of the erythrocytes-containing culture in each well of the tissue culture plate was smeared on a glass slide and giemsa-stained. The number of erythrocytes infected with falciparum malaria parasites out of 2000 erythrocytes was counted so as to determine parasitaemia.

For `NCCOB(c1ccccc1)c1ccccc1` [2-APB, 2-aminoethyl diphenylborinate], which “Endoplasmic reticulum tracker signals” value [1] is on record?
Its value is “became broad and extended to the cytosol”.

What about the “Ultrafine structure (electron micrographs)” value ([2]; 100 μM 2-APB, 30 hours) of the same molecule?
The value was “highly dense chromatin masses in the nucleus and highly dense degeneration”.

What about the “Nuclear envelope and endoplasmic reticulum in electron micrographs” value ([2]; cultured in presence of 2-APB) of the same molecule?
The value was “dilated nuclear envelope and endoplasmic reticulum”.

And the “Area, perimeter and maximum diameter of parasite cells” value ([3]; 100 μM 2-APB present for 10 hours and 20 hours vs DMSO)?
Its value is “significantly smaller”.

What about the “Area, perimeter and maximum diameter of parasite cells” value ([3]; 100 μM 2-APB removed at 10 hours, measured at 20 hours vs DMSO) of the same molecule?
Its value is “no statistically significant difference”.

What about the “Area, perimeter and maximum diameter of parasite cells” value ([3]; 100 μM 2-APB vs DMSO, 15, 30 and 40 hours) of the same molecule?
The value was “significant decreases”.

What about the “Increase in concentration of calcium ion in cytoplasm brought about by melatonin” value ([4]; 2-APB administered to malaria parasites) of the same molecule?
Its value is “suppressed”.

And the “Promotion of calcium discharge by 2-APB itself” value ([4]; malaria parasites)?
Its value is “no effect”.

What about the Parasitaemia of trophozoites ([5]; 100 μM 2-APB, 24 hours) of the same molecule?
The Parasitaemia of trophozoites was “tendency towards decreasing parasitaemia”.

And the “Intraerythrocytic malaria parasite development” value ([5]; 2-APB vs DMSO, 48 hours)?
Its value is “delayed”.

What about the “Number of erythrocytes infected with falciparum malaria parasite” value ([5]; 2-APB vs DMSO, 72 hours) of the same molecule?
Its value is “much lesser”.

What about the “Effect of 2-APB on the K-1 strain” value ([5]; 24 hour from start of assay) of the same molecule?
The value was “relatively weak”.

What about the “Spontaneous Ca2+ oscillations” value ([6]; 100 μM 2-APB, early ring form and trophozoite stages) of the same molecule?
Its value is “almost completely blocked”.

What about the “Ca2+ fluctuations” value ([6]; 100 μM 2-APB, late ring form, schizont and merozoite stages) of the same molecule?
Its value is “no notable effect”.

What about the “Amplitude of periodic Ca2+ fluctuations (mean max minus mean min F/Fmin)” value ([6]; 2-APB, late ring form, schizont, merozoite stages, quantitative analysis) of the same molecule?
The value was “statistically significant effect of 2-APB was observed only in the merozoite stage”.

What about the “Inhibitory effect by area, perimeter and maximum diameter of parasite cells” value [7] of the same molecule?
The value was “confirmed”.

And the “Intraerythrocytic development of falciparum malaria parasites” value ([8]; 100 μM 2-APB vs DMSO controls, 20, 30, 40 hours of synchronized culturing)?
The value was “clearly delayed”.

What about the “Ring form parasitaemia at 45 hours” value ([8]; 2-APB added at late schizont stage (28 hours)) of the same molecule?
Its value is “significantly decreased”.

What about the “Parasitaemia of ring forms at 40 hours” value ([8]; 2-APB added between trophozoite and early schizont stages (21 hours), compared with the removal cases) of the same molecule?
Its value is “greater effect”.

And the “Number of merozoites formed in each schizont” value ([8]; 2-APB vs DMSO, 40 hours)?
The value was “significantly smaller”.

And the Erythrocyte parasitaemia ([8]; 2-APB, medium replaced at 40 h, 70 hours from start of synchronized culturing)?
The Erythrocyte parasitaemia was “substantially zero”.

And the Developmental stage reached ([8]; 2-APB, 20 hours from start of synchronized culturing)?
Its Developmental stage reached is “remained at the trophozoite stage”.

What about the Parasite morphology ([8]; cultured in presence of 2-APB, up to 40 hours) of the same molecule?
The Parasite morphology was “abnormal morphology”.

And the “Parasite development in 2-APB-pretreated erythrocytes” value ([8]; erythrocytes treated with 2-APB only in advance, 20 and 40 hours)?
Its value is “could develop normally”.

For `C/C=C/[C@H]1O[C@@](O)([C@@H](C)[C@H](O)[C@H](C)[C@H]2OC(=O)/C(OC)=C/C(C)=C/[C@@H](C)[C@@H](O)[C@@H](CC)[C@@H](O)[C@H](C)C/C(C)=C/C=C/[C@@H]2OC)C[C@@H](O[C@H]2C[C@@H](O)[C@H](OC(N)=O)[C@@H](C)O2)[C@@H]1C` [CMA, concanamycin A], which “Ca2+ oscillations” value ([6]; pre-treatment with 100 nM CMA, early ring forms and trophozoites) is on record?
Its value is “no effect”.

With `CC(=O)NCCc1c(Cc2ccccc2)[nH]c2ccccc12` [LZ, luzindole] as the molecule, how does the “Intraerythrocytic falciparum malaria parasite development” value ([8]; 250 μM LZ, 20, 40, 70 hours) read?
The value was “clearly inhibited”.

What about the Developmental stage reached ([8]; 250 μM LZ, 20 hours) of the same molecule?
Its Developmental stage reached is “remained in a transition stage from ring forms to early trophozoites”.

What about the Developmental stage reached ([8]; 250 μM LZ, 40 hours) of the same molecule?
Its Developmental stage reached is “most of the falciparum malaria parasites remained in the transition stage from ring forms to early trophozoites”.

And the Developmental stage reached ([8]; 250 μM LZ, 70 hours)?
The Developmental stage reached was “remained in the transition stage from ring forms to early trophozoites even at 70 hours”.

With `C/C=C(/C)C(=O)O[C@H]1C(C)=C2[C@H]([C@@H]1OC(=O)CCCCCCC)[C@@](C)(OC(C)=O)C[C@H](OC(=O)CCC)[C@@]1(O)[C@H]2OC(=O)[C@@]1(C)O` [Tg, thapsigargin] as the molecule, how does the “Ca2+ oscillations” value ([6]; pre-treatment with 2 μM Tg for 30 minutes, early ring forms and trophozoites) read?
Its value is “blocked”.

For `COc1ccc2c(c1)CC[C@@H]1[C@@H]2CC[C@]2(C)[C@@H](NCCCCCCN3C(=O)C=CC3=O)CC[C@@H]12` [U73122], which “Ca2+ oscillations” value ([6]; 5 minutes pre-treatment with 10 μM U73122, early ring form and trophozoite stages) is on record?
The value was “almost completely blocked”.
